What was measured:
[1] = biological target: T1, bromodomain-containing protein 4 (BRD4) (Homo sapiens, UniProt O60885); test: BRD4 Western blot (degradation); format: cell-based; settings: at 1 μM; VCaP cells, 16 h
T1 construct: VCaP cells were chased from ATCC and cultured in Dulbecco's Modified Eagle's Medium; host or cells: VCaP
Description: (§1) The following biological assays were performed to evaluate the protein degradation in various cell types using representative compounds disclosed. The degradation of the following proteins were evaluated: bromodomain-containing protein 4 (BRD4), androgen receptor (AR), c-Myc, c-Jun N-terminal kinases (JNK), and enhancer of zeste homolog 2 (EZH2).
VCaP cells were chased from ATCC and cultured in Dulbecco's Modified Eagle's Medium (ATCC), supplemented with 10% FBS (ATCC) and Penicillin/Streptomycin (Life Technologies). DMSO control and compound treatments (0.03 μM to 1 μM) were performed in 12-well plates for 16 h. cells were harvested, and lysed in RIPA buffer (50 mM Tris pH8, 150 mM NaCl, 1% Tx-100, 0.1% SDS, 0.5% sodium deoxycholate) supplemented with protease and phosphatase inhibitors. Lysates were clarified at 16,000 g for 10 minutes, and protein concentration was determined. Equal amount of protein (20 μg) was subjected to SDS-PAGE analysis and followed by immunoblotting according to standard protocols. The antibodies used were BRD4 (Cell signaling #13440), and Actin (Sigma #5441). Detection reagents were Clarity Western ELC substrate (Bio-rad #170-5060).

[2] = system: p53; test: Western blot of HCT116 cells, p53 level; format: cell-based, human; settings: Western blot (FIG. 2, FIG. 3)
[3] = biological target: T2, MDM2 (Homo sapiens, UniProt Q00987); test: Western blot of HCT116 cells, MDM2 level; format: cell-based; settings: Western blot (FIG. 2, FIG. 3)
T2 construct: Western blot of HCT116 cells treated with chimeric molecules; endogenous in cells; host or cells: HCT116
T2 sequence (Q00987 whole entry): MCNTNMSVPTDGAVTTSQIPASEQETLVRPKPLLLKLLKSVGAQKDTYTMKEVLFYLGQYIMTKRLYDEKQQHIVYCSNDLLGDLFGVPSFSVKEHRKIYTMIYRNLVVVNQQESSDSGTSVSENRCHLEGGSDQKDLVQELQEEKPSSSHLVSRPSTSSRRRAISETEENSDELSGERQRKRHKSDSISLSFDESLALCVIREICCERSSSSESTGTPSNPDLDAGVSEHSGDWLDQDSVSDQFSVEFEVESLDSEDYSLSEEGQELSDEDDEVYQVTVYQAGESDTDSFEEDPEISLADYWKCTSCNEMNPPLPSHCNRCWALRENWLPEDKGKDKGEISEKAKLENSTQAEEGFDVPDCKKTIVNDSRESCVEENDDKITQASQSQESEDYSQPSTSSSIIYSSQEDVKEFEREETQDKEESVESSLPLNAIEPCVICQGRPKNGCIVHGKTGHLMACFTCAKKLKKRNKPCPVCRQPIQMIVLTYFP

[4] = system: c-Jun N-terminal kinases (JNK); test: JNK Western blot assay (degradation); format: cell-based; settings: at 1 μM; 16 h
Description: as §1
(§2) Cells were purchased from ATCC and cultured in Dulbecco's Modified Eagle's Medium (ATCC), supplemented with 10% FBS (ATCC) and Penicillin/Streptomycin (Life Technologies). […] Cells were harvested, and lysed in RIPA buffer (50 mM Tris pH8, 150 mM NaCl, 1% Tx-100, 0.1% SDS, 0.5% sodium deoxycholate) supplemented with protease and phosphatase inhibitors. Lysates were clarified at 16,000 g for 10 minutes, and protein concentration was determined. Equal amount of protein (20 μg) was subjected to SDS-PAGE analysis and followed by immunoblotting according to standard protocols.

[5] = biological target: enhancer of zeste homolog 2 (EZH2) (Homo sapiens, UniProt Q15910); test: EZH2 Western blot assay (degradation); format: cell-based; settings: at 1 μM; 16 h
Sequence of enhancer of zeste homolog 2 (EZH2) (Q15910 whole entry): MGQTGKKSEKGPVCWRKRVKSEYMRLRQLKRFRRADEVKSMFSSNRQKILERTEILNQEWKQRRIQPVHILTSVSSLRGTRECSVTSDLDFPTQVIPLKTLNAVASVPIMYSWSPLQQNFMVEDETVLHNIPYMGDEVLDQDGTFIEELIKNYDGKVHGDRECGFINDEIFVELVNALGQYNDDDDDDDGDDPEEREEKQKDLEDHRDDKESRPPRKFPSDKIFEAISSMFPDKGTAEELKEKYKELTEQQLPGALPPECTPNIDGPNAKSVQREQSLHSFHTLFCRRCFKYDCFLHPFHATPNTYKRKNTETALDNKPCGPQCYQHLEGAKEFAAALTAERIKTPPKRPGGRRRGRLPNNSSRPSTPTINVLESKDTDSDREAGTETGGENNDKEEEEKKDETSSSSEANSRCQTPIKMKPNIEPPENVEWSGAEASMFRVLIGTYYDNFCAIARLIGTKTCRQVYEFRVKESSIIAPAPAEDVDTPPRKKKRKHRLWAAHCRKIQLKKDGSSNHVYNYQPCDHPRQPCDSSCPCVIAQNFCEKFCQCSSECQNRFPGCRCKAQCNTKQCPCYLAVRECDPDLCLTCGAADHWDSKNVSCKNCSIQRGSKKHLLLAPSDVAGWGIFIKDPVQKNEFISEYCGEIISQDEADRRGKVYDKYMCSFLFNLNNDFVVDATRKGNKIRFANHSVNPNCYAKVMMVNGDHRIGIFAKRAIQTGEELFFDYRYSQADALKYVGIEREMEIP
Sequence of enhancer of zeste homolog 2 (EZH2) (O75530 whole entry partner): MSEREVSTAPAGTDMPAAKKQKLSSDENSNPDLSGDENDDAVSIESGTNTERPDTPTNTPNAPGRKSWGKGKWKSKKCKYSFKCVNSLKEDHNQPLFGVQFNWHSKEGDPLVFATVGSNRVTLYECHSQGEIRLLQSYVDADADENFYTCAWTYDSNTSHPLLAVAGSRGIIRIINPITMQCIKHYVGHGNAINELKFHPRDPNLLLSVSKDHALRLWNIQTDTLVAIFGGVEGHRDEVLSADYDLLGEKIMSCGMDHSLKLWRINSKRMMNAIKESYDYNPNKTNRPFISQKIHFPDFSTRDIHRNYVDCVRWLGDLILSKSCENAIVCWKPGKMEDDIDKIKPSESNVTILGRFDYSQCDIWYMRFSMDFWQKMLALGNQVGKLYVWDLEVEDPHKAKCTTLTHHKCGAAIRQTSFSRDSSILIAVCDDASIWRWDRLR
Sequence of enhancer of zeste homolog 2 (EZH2) (Q15022 whole entry partner): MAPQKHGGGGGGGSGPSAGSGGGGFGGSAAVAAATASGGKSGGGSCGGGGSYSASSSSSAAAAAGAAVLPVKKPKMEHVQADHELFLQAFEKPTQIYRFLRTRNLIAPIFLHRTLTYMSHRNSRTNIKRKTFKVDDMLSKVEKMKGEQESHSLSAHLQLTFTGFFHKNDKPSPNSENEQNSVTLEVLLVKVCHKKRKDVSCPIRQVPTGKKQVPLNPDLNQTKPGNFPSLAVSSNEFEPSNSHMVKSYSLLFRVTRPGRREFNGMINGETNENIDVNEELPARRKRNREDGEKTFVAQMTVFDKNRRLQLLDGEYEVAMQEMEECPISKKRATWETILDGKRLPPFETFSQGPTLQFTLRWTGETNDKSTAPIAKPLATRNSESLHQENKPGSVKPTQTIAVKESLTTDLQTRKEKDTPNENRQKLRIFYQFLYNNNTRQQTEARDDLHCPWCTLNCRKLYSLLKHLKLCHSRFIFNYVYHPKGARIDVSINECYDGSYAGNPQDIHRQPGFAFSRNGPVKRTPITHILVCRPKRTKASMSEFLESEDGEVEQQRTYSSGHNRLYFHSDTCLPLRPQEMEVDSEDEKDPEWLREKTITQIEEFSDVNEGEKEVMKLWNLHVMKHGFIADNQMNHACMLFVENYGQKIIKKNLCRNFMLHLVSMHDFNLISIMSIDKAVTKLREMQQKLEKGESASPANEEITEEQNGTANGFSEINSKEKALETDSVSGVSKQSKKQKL
Description: as §1, §2

Row | Degradation activity BRD4 [1] | MDM2 up-regulation [3] | Degradation activity EZH2 [5] | Compound | p53 level increase [2] | Degradation activity JNK [4]
1 | A (0 to 25% degradation at 1 μM) | no MDM2 up-regulation |  | COc1cc(C(=O)NCCOCCNC(=O)C[C@@H]2N=C(c3ccc(Cl)cc3)c3c(sc(C)c3C)-n3c(C)nnc32)ccc1NC(=O)[C@H]1N[C@H](CC(C)(C)C)[C@@](C#N)(c2ccc(Cl)cc2F)[C@@H]1c1cccc(Cl)c1F [Compound A1891, (2S,3R,4S,5R)-3-(3-chloro-2-fluorophenyl)-4-(4-chloro-2-fluorophenyl)-N-(4-{[2-(2-{2-[(9S)-7-(4-chlorophenyl)-4,5,13-trimethyl-3-thia-1,8,11,12-tetraazatricyclo[8.3.0.0^2,^6]-trideca-2(6),4,7,10,12-pentaen-9-yl]acetamido}ethoxy)ethyl]carbamoyl}-2-methoxyphenyl)-4-cyano-5-(2,2-dimethylpropyl)pyrrolidine-2-carboxamide] | no p53 level increase | 
2 |  |  | A (0 to 25% degradation at 1 μM) | CCN(c1cc(-c2ccc(OCCOCCOCCOCCOCCOCCNC(=O)c3ccc(NC(=O)C4NC(CC(C)(C)C)C(C#N)(c5ccc(Cl)cc5F)C4c4cccc(Cl)c4F)c(OC)c3)cc2)cc(C(=O)NCc2c(C)cc(C)[nH]c2=O)c1C)C1CCOCC1 (stereo not drawn) [Compound A2844, 3-(3-chloro-2-fluorophenyl)-4-(4-chloro-2-fluorophenyl)-4-cyano-N-[4-({1-[4-(3-{[(4,6-dimethyl-2-oxo-1,2-dihydropyridin-3-yl)methyl]carbamoyl}-5-[ethyl(oxan-4-yl)amino]-4-methylphenyl)phenyl]-1,4,7,10,13,16-hexaoxaoctadecan-18-yl}carbamoyl)-2-methoxyphenyl]-5-(2,2-dimethylpropyl)pyrrolidine-2-carboxamide] |  | 
3 | A (0 to 25% degradation at 1 μM) | no MDM2 up-regulation |  | COc1cc(C(=O)NCCOCCOCCOCCOCCNC(=O)C[C@@H]2N=C(c3ccc(Cl)cc3)c3c(sc(C)c3C)-n3c(C)nnc32)ccc1NC(=O)[C@H]1N[C@H](CC(C)(C)C)[C@@](C#N)(c2ccc(Cl)cc2F)[C@@H]1c1cccc(Cl)c1F [Compound A1894, (2S,3R,4S,5R)-3-(3-chloro-2-fluorophenyl)-4-(4-chloro-2-fluorophenyl)-N-{4-[(14-{2-[(9S)-7-(4-chlorophenyl)-4,5,13-trimethyl-3-thia-1,8,11,12-tetraazatricyclo[8.3.0.0^2,^6]-trideca-2(6),4,7,10,12-pentaen-9-yl]acetamido}-3,6,9,12-tetraoxatetradecan-1-yl)carbamoyl]-2-methoxyphenyl}-4-cyano-5-(2,2-dimethylpropyl)pyrrolidine-2-carboxamide] | no p53 level increase | 
4 |  |  | A (0 to 25% degradation at 1 μM) | CCN(c1cc(-c2ccc(OCCOCCOCCOCCNC(=O)c3ccc(NC(=O)C4NC(CC(C)(C)C)C(C#N)(c5ccc(Cl)cc5F)C4c4cccc(Cl)c4F)c(OC)c3)cc2)cc(C(=O)NCc2c(C)cc(C)[nH]c2=O)c1C)C1CCOCC1 (stereo not drawn) [Compound A2790, 3-(3-chloro-2-fluorophenyl)-4-(4-chloro-2-fluorophenyl)-4-cyano-N-[4-({1-[4-(3-{[(4,6-dimethyl-2-oxo-1,2-dihydropyridin-3-yl)methyl]carbamoyl}-5-[ethyl(oxan-4-yl)amino]-4-methylphenyl)phenyl]-1,4,7,10-tetraoxadodecan-12-yl}carbamoyl)-2-methoxyphenyl]-5-(2,2-dimethylpropyl)pyrrolidine-2-carboxamide] |  | 

The next lines start with the compound.

Row | Compound | Degradation activity BRD4 [1] | MDM2 up-regulation [3] | Degradation activity EZH2 [5] | p53 level increase [2] | Degradation activity JNK [4]
5 | COc1cc(C(=O)NCCOCCOCCNC(=O)C[C@@H]2N=C(c3ccc(Cl)cc3)c3c(sc(C)c3C)-n3c(C)nnc32)ccc1NC(=O)[C@@H]1N[C@@H](CC(C)(C)C)[C@](C#N)(c2ccc(Cl)cc2F)[C@H]1c1cccc(Cl)c1F [Compound A1864, (2R,3S,4R,5S)-3-(3-chloro-2-fluorophenyl)-4-(4-chloro-2-fluorophenyl)-N-[4-({2-[2-(2-{2-[(9S)-7-(4-chlorophenyl)-4,5,13-trimethyl-3-thia-1,8,11,12-tetraazatricyclo-[8.3.0.0^2,^6]trideca-2(6),4,7,10,12-pentaen-9-yl]acetamido}ethoxy)ethoxy]ethyl}-carbamoyl)-2-methoxyphenyl]-4-cyano-5-(2,2-dimethylpropyl)pyrrolidine-2-carboxamide] | B (25 to 50% degradation at 1 μM) | up-regulation of MDM2 |  | dose dependent p53 level increase | 
6 | COc1cc(C(=O)NCCOCCOCCOCCO[C@H]2CC[C@H](Nc3nccc(-c4cnn(Cc5ccccc5)c4N(C)C)n3)CC2)ccc1NC(=O)C1N[C@@H](CC(C)(C)C)[C@](C#N)(c2ccc(Cl)cc2F)[C@H]1c1cccc(Cl)c1F (stereo partly drawn) [Compound A2791, 3-(3-chloro-2-fluorophenyl)-4-(4-chloro-2-fluorophenyl)-4-cyano-5-(2,2-dimethylpropyl)-N-[2-methoxy-4-({1-[(1,4-trans)-4-({4-[1-benzyl-5-(dimethylamino)-1H-pyrazol-4-yl]pyrimidin-2-yl}amino)cyclohexyl]-1,4,7,10-tetraoxadodecan-12-yl}carbamoyl)phenyl]pyrrolidine-2-carboxamide] |  |  |  |  | A (0 to 25% degradation at 1 μM)
7 | COc1ccc(C(=O)NCCOCCOCCOCCOCCO[C@H]2CC[C@H](Nc3nccc(-c4cnn(Cc5ccccc5)c4N(C)C)n3)CC2)cc1NC(=O)C1N[C@@H](CC(C)(C)C)[C@](C#N)(c2ccc(Cl)cc2F)[C@H]1c1cccc(Cl)c1F (stereo partly drawn) [Compound A2792, 3-(3-chloro-2-fluorophenyl)-4-(4-chloro-2-fluorophenyl)-4-cyano-5-(2,2-dimethylpropyl)-N-[2-methoxy-5-({1-[(1,4-trans)-4-({4-[1-benzyl-5-(dimethylamino)-1H-pyrazol-4-yl]pyrimidin-2-yl}amino)cyclohexyl]-1,4,7,10,13-pentaoxapentadecan-15-yl}carbamoyl)phenyl]pyrrolidine-2-carboxamide] |  |  |  |  | A (0 to 25% degradation at 1 μM)
8 | COc1cc(C(=O)NCCOCCNC(=O)C[C@@H]2N=C(c3ccc(Cl)cc3)c3c(sc(C)c3C)-n3c(C)nnc32)ccc1NC(=O)[C@@H]1N[C@@H](CC(C)(C)C)[C@](C#N)(c2ccc(Cl)cc2F)[C@H]1c1cccc(Cl)c1F [Compound A1892, (2R,3S,4R,5S)-3-(3-chloro-2-fluorophenyl)-4-(4-chloro-2-fluorophenyl)-N-(4-{[2-(2-{2-[(9S)-7-(4-chlorophenyl)-4,5,13-trimethyl-3-thia-1,8,11,12-tetraazatricyclo[8.3.0.0^2,^6]-trideca-2(6),4,7,10,12-pentaen-9-yl]acetamido}ethoxy)ethyl]carbamoyl}-2-methoxyphenyl)-4-cyano-5-(2,2-dimethylpropyl)pyrrolidine-2-carboxamide] | C (larger than 50% degradation at 1 μM) | up-regulation of MDM2 |  | dose dependent p53 level increase | 
9 | COc1cc(C(=O)NCCOCCO[C@H]2CC[C@H](Nc3nccc(-c4cnn(Cc5ccccc5)c4N(C)C)n3)CC2)ccc1NC(=O)C1N[C@@H](CC(C)(C)C)[C@](C#N)(c2ccc(Cl)cc2F)[C@H]1c1cccc(Cl)c1F (stereo partly drawn) [Compound A2720, 3-(3-chloro-2-fluorophenyl)-4-(4-chloro-2-fluorophenyl)-4-cyano-5-(2,2-dimethylpropyl)-N-(2-methoxy-4-{[2-(2-{[(1,4-trans)-4-({4-[1-benzyl-5-(dimethylamino)-1H-pyrazol-4-yl]pyrimidin-2-yl}amino)cyclohexyl]oxy}ethoxy)ethyl]carbamoyl}phenyl)pyrrolidine-2-carboxamide] |  |  |  |  | A (0 to 25% degradation at 1 μM)
10 | COc1ccc(C(=O)NCCOCCOCCO[C@H]2CC[C@H](Nc3nccc(-c4cnn(Cc5ccccc5)c4N(C)C)n3)CC2)cc1NC(=O)C1N[C@@H](CC(C)(C)C)[C@](C#N)(c2ccc(Cl)cc2F)[C@H]1c1cccc(Cl)c1F (stereo partly drawn) [Compound A2766, 3-(3-chloro-2-fluorophenyl)-4-(4-chloro-2-fluorophenyl)-4-cyano-5-(2,2-dimethylpropyl)-N-[2-methoxy-5-({2-[2-(2-{[(1,4-trans)-4-({4-[1-benzyl-5-(dimethylamino)-1H-pyrazol-4-yl]pyrimidin-2-yl}amino)cyclohexyl]oxy}ethoxy)ethoxy]ethyl}carbamoyl)phenyl]pyrrolidine-2-carboxamide] |  |  |  |  | A (0 to 25% degradation at 1 μM)
